Experimental data taken from PMC8701318, “LC-QTOF-MS/MS Based Molecular Networking Approach for the Isolation of α-Glucosidase Inhibitors and Virucidal Agents from Coccinia grandis (L.) Voigt” (Foods, 2021).

Columns and labels:
α-glucosidase = tested on: α-glucosidase; design: method as in PMID 24125526; conditions: isolated from leaves of Morus atropurpurea; cited from earlier work
[1] = molecular target: α-Glucosidase enzyme (Saccharomyces cerevisiae); assay: In-vitro α-glucosidase inhibitory assay (p-NPG substrate); conditions: read-out: α-Glucosidase Inhibitory Activity, IC50; mean ± s.d. of a triplicate experiment
Procedure: The α-glucosidase assay was performed as described by Liu et al. [21] with slight modification. The reaction mixture consisting of 50 µL of potassium phosphate buffer (PBS, 0.1 M, pH 6.8) and 20 µL of α-glucosidase (0.5 U/mL) was pre-incubated with 20 µL of the test sample at 37 °C for 15 min in a 96-well plate. The mixture was added 20 µL p-NPG (1 mM) and incubated again at 37 °C for 15 min. A total of 50 µL of Na2CO3 (0.2 M) was added to terminate the enzymatic activity. The absorbance value of each well was measured immediately using a microplate reader at 405 nm. […] All glycosides were dissolved in 50% DMSO, while a crude extract was dissolved in 100% DMSO. The experiment was performed in triplicate. The enzyme inhibition rate was calculated as follows:(1) [1−(ODsample−ODsample blank)/(ODcontrol−ODblank)] × 100 where ODsample represents the absorbance of PBS + enzyme + sample + p-NPG; ODsample blank represents the absorbance of PBS + sample; ODcontrol represents the absorbance of PBS + enzyme + solvent + p-NPG; ODblank represents the absorbance of PBS + solvent. The inhibitory activity is expressed as IC50 (half minimal inhibitory concentration) value. Data were normalized, and the IC50 values were calculated using GraphPad Prism 9.2.0.

hepatitis C virus = tested on: hepatitis C virus; design: method as in PMID 28638096; conditions: cited from earlier work
influenza A virus H1N1 = assay: Virucidal activity, ASTM E1053-20 method; type: cell-based; conditions: for Virucidal Activity Log Reduction: 10 min exposure
[2] = Cytotoxicity in MDCK cells by the MTT assay; conditions: dog
[3] = tested on: dengue virus serine protease; design: method as in PMID 32107969; conditions: cited from earlier work
[4] = mice model; cited from earlier work
[5] = design: method as in earlier work; conditions: isolated from cottonseeds; cited from earlier work
[6] = tested on: hippocampal neural progenitor cells; design: method as in PMID 19326568; conditions: possibly via the 5-HT1A receptor; cited from earlier work

## C[C@@H]1O[C@@H](OC[C@H]2O[C@@H](Oc3c(-c4ccc(O)c(O)c4)oc4cc(O)cc(O)c4c3=O)[C@H](O)[C@@H](O)[C@@H]2O)[C@H](O)[C@H](O)[C@H]1O [Compound 1, rutin]
α-glucosidase
  α-glucosidase inhibitory activity (in words): α-glucosidase inhibitory activity
[1]
  IC50: 243 ± 5.29 µM
Hepatitis C virus
  hepatitis C virus entry inhibition (in words): potent hepatitis C virus entry inhibitor
Influenza A virus H1N1; 3.9 µg/mL
  Virucidal Activity Log Reduction: 1.20 ± 0.025 Log
Influenza A virus H1N1; 7.8 µg/mL
  Virucidal Activity Log Reduction: 1.32 ± 0.032 Log
Influenza A virus H1N1; 15.6 µg/mL
  Virucidal Activity Log Reduction: 1.34 ± 0.044 Log
Influenza A virus H1N1; 31.3 µg/mL
  Virucidal Activity Log Reduction: 1.34 ± 0.030 Log
Influenza A virus H1N1; 62.5 µg/mL
  Virucidal Activity Log Reduction: 1.52 ± 0.045 Log
Influenza A virus H1N1; 125.0 µg/mL
  Virucidal Activity Log Reduction: 1.80 ± 0.105 Log
[2]
  viability at 3.9 µg/mL: 99.3 ± 3.45%
  viability at 7.8 µg/mL: 97.8 ± 0.31%
  viability at 15.6 µg/mL: 94.7 ± 3.93%
  viability at 31.3 µg/mL: 86.5 ± 2.16%
  viability at 62.5 µg/mL: 83.8 ± 2.02%
  viability at 125 µg/mL: 77.2 ± 1.28%

## C[C@@H]1O[C@@H](OC[C@H]2O[C@@H](Oc3c(-c4ccc(O)cc4)oc4cc(O)cc(O)c4c3=O)[C@H](O)[C@@H](O)[C@@H]2O)[C@H](O)[C@H](O)[C@H]1O [Compound 2, kaempferol 3-O-rutinoside]
α-glucosidase
  α-glucosidase inhibitory activity (in words): α-glucosidase inhibitory activity
[1]
  IC50: 236 ± 27.7 µM
Influenza A virus H1N1; 3.9 µg/mL
  Virucidal Activity Log Reduction: 1.66 ± 0.071 Log
Influenza A virus H1N1; 7.8 µg/mL
  Virucidal Activity Log Reduction: 1.65 ± 0.084 Log
Influenza A virus H1N1; 15.6 µg/mL
  Virucidal Activity Log Reduction: 1.66 ± 0.071 Log
Influenza A virus H1N1; 31.3 µg/mL
  Virucidal Activity Log Reduction: 1.68 ± 0.046 Log
Influenza A virus H1N1; 62.5 µg/mL
  Virucidal Activity Log Reduction: 1.82 ± 0.091 Log
Influenza A virus H1N1; 125.0 µg/mL
  Virucidal Activity Log Reduction: 1.95 ± 0.124 Log
[2]
  viability at 3.9 µg/mL: 98.1 ± 1.34%
  viability at 7.8 µg/mL: 96.3 ± 5.13%
  viability at 15.6 µg/mL: 92.3 ± 1.95%
  viability at 31.3 µg/mL: 88.5 ± 2.67%
  viability at 62.5 µg/mL: 86.5 ± 3.82%
  viability at 125 µg/mL: 78 ± 1.75%
[3]
  inhibition of dengue virus serine protease (in words): strong inhibition

## C[C@@H]1O[C@@H](OC[C@H]2O[C@@H](Oc3c(-c4ccc(O)cc4)oc4cc(O)cc(O)c4c3=O)[C@H](O)[C@@H](O)[C@H]2O)[C@H](O)[C@H](O)[C@H]1O [Compound 3, kaempferol 3-O-alpha-L-rhamnopyranosyl-(1→6)-beta-D-galactopyranoside]
[1]
  IC50: 195 ± 18.1 µM
Influenza A virus H1N1; 3.9 µg/mL
  Virucidal Activity Log Reduction: 1.63 ± 0.069 Log
Influenza A virus H1N1; 7.8 µg/mL
  Virucidal Activity Log Reduction: 1.66 ± 0.071 Log
Influenza A virus H1N1; 15.6 µg/mL
  Virucidal Activity Log Reduction: 1.91 ± 0.062 Log
Influenza A virus H1N1; 31.3 µg/mL
  Virucidal Activity Log Reduction: 1.95 ± 0.124 Log
Influenza A virus H1N1; 62.5 µg/mL
  Virucidal Activity Log Reduction: 1.91 ± 0.062 Log
Influenza A virus H1N1; 125.0 µg/mL
  Virucidal Activity Log Reduction: 1.98 ± 0.088 Log
Influenza A virus H1N1; 31.3 and 15.6 µg/mL
  reduction of virus: 99%
  virucidal Log reduction: around 1.9 Log
[2]
  viability at 3.9 µg/mL: 95.6 ± 6.25%
  viability at 7.8 µg/mL: 92.8 ± 4.84%
  viability at 15.6 µg/mL: 89.7 ± 0.82%
  viability at 31.3 µg/mL: 88.7 ± 0.21%
  viability at 62.5 µg/mL: 83.6 ± 0.74%
  viability at 125 µg/mL: 73.3 ± 0.9%

## C[C@@H]1O[C@@H](OC[C@H]2O[C@@H](Oc3c(-c4ccc(O)c(O)c4)oc4cc(O)cc(O)c4c3=O)[C@H](O[C@@H]3OCC(O)(CO)[C@H]3O)[C@@H](O)[C@@H]2O)[C@H](O)[C@H](O)[C@H]1O (stereo partly drawn) [Compound 5, quercetin 3-O-β-D-apiofuranosyl-(1→2)-[α-L-rhamnopyranosyl-(1→6)]-β-D-glucopyranoside]
[1]
  IC50: 431 ± 17.6 µM
Influenza A virus H1N1; 15.6 µg/mL
  Virucidal Activity Log Reduction: 1.87 ± 0.072 Log
Influenza A virus H1N1; 31.3 µg/mL
  Virucidal Activity Log Reduction: 1.84 ± 0.108 Log
Influenza A virus H1N1; 62.5 µg/mL
  Virucidal Activity Log Reduction: 1.90 ± 0.062 Log
Influenza A virus H1N1; 125.0 µg/mL
  Virucidal Activity Log Reduction: 1.97 ± 0.088 Log
Influenza A virus H1N1; 250.0 µg/mL
  Virucidal Activity Log Reduction: 2.01 ± 0.239 Log
Influenza A virus H1N1; 500.0 µg/mL
  Virucidal Activity Log Reduction: 2.11 ± 0.198 Log
Influenza A virus H1N1; 500.0 and 250.0 µg/mL
  reduction of virus: 99%
  virucidal Log reduction: 1.93–2.41 Log
[4]
  absorption and tissue distribution (in words): could be absorbed and distributed into tissues
[5]
  antidepressant and cytoprotective effects (in words): antidepressant and cytoprotective effects
[2]
  viability at 15.6 µg/mL: 95.8 ± 4.22%
  viability at 31.3 µg/mL: 94.1 ± 1.85%
  viability at 62.5 µg/mL: 90 ± 3.08%
  viability at 125 µg/mL: 85.8 ± 2.87%
  viability at 250 µg/mL: 83.7 ± 1.2%
  viability at 500 µg/mL: 82.9 ± 2.06%
[6]
  proliferation of hippocampal neural progenitor cells (in words): could enhance the proliferation

## C[C@@H]1O[C@@H](OC[C@H]2O[C@@H](Oc3c(-c4ccc(O)cc4)oc4cc(O)cc(O)c4c3=O)[C@H](O[C@@H]3OCC(O)(CO)[C@H]3O)[C@@H](O)[C@@H]2O)[C@H](O)[C@H](O)[C@H]1O (stereo partly drawn) [Compound 6, kaempferol 3-O-β-D-apiofuranosyl-(1→2)-[α-L-rhamnopyranosyl-(1→6)]-β-D-glucopyranoside]
[1]
  IC50: 456 ± 26 µM
Influenza A virus H1N1; 15.6 µg/mL
  Virucidal Activity Log Reduction: 1.93 ± 0.124 Log
Influenza A virus H1N1; 31.3 µg/mL
  Virucidal Activity Log Reduction: 1.93 ± 0.124 Log
Influenza A virus H1N1; 62.5 µg/mL
  Virucidal Activity Log Reduction: 1.93 ± 0.124 Log
Influenza A virus H1N1; 125.0 µg/mL
  Virucidal Activity Log Reduction: 1.93 ± 0.124 Log
Influenza A virus H1N1; 250.0 µg/mL
  Virucidal Activity Log Reduction: 1.93 ± 0.124 Log
Influenza A virus H1N1; 500.0 µg/mL
  Virucidal Activity Log Reduction: 1.97 ± 0.042 Log
Influenza A virus H1N1; 500.0 and 250.0 µg/mL
  reduction of virus: 99%
  virucidal Log reduction: 1.93–2.41 Log
[2]
  viability at 15.6 µg/mL: 97 ± 2.99%
  viability at 31.3 µg/mL: 95.7 ± 1.63%
  viability at 62.5 µg/mL: 93.7 ± 4.87%
  viability at 125 µg/mL: 89.5 ± 0.83%
  viability at 250 µg/mL: 88.6 ± 0.43%
  viability at 500 µg/mL: 86.4 ± 2.06%

## C[C@@H]1O[C@@H](OC[C@H]2O[C@@H](Oc3c(-c4ccc(O)cc4)oc4cc(O)cc(O)c4c3=O)[C@H](O[C@@H]3OCC(O)(CO)[C@H]3O)[C@@H](O)[C@H]2O)[C@H](O)[C@H](O)[C@H]1O (stereo partly drawn) [Compound 7, kaempferol 3-O-β-D-apiofuranosyl-(1→2)-[α-L-rhamnopyranosyl-(1→6)]-β-D-galactopyranoside]
[1]
  IC50: 432 ± 18.9 µM
